Source: US20220085295A1, “Novel Compound and Organic Light Emitting Device Comprising the Same” (LG Chem, Ltd., priority 2019, published 2022)

Assay: Solubility experiment in toluene
Assay type: physicochemical
Details: in toluene at room temperature/normal pressure

SMILES	Solubility (wt %)
CC(C)(C)c1ccc(N(c2ccc(C(C)(C)C)cc2)c2ccc(C3(c4ccc(C(C)(C)C)cc4)c4cc(N(c5ccccc5)c5ccc(C(C)(C)C)cc5)ccc4-c4c3cc(N(c3ccccc3)c3ccc(C(C)(C)C)cc3)c3oc5ccccc5c43)cc2)cc1 (stereo not shown) [Compound 1]	4.5
CC(C)(C)c1ccc(N(c2ccc(C(C)(C)C)cc2)c2ccc(C3(c4ccc(C(C)(C)C)cc4)c4cc(N(c5ccc(C(C)(C)C)cc5)c5cccc6c5oc5ccccc56)ccc4-c4c3cc(N(c3ccc(C(C)(C)C)cc3)c3cccc5c3oc3ccccc35)c3oc5ccccc5c43)cc2)cc1 (stereo not shown) [Compound 2]	4.7
CC(C)(C)c1ccc(N(c2ccc(C(C)(C)C)cc2)c2ccc(C3(c4ccc(C(C)(C)C)cc4)c4cc(N(c5ccccc5)c5ccc(C(C)(C)C)cc5)ccc4-c4c3cc(N(c3ccccc3)c3ccc(C(C)(C)C)cc3)c3c4-c4ccccc4C3(C)C)cc2)cc1 (stereo not shown) [Compound 3]	5.8
CC(C)(C)c1ccc(N(c2ccc(C(C)(C)C)cc2)c2ccc(C3(c4ccc(C(C)(C)C)cc4)c4cc(N(c5ccc(C(C)(C)C)cc5)c5cccc6c5oc5ccccc56)ccc4-c4c3cc(N(c3ccc(C(C)(C)C)cc3)c3cccc5c3oc3ccccc35)c3c4-c4ccccc4C3(C)C)cc2)cc1 (stereo not shown) [Compound 4]	5.5
CC(C)(C)c1ccc(N(c2ccc(C(C)(C)C)cc2)c2ccc(C3(c4ccc(C(C)(C)C)cc4)c4cc(N(c5ccccc5)c5ccc(C(C)(C)C)cc5)c5c(oc6ccccc65)c4-c4c3cc(N(c3ccccc3)c3ccc(C(C)(C)C)cc3)c3oc5ccccc5c43)cc2)cc1 (stereo not shown) [Compound 5]	3.9
CC(C)(C)c1ccc(N(c2ccc(C(C)(C)C)cc2)c2ccc(C3(c4ccc(C(C)(C)C)cc4)c4cc(N(c5ccc(C(C)(C)C)cc5)c5cccc6c5oc5ccccc56)c5c(oc6ccccc65)c4-c4c3cc(N(c3ccc(C(C)(C)C)cc3)c3cccc5c3oc3ccccc35)c3oc5ccccc5c43)cc2)cc1 (stereo not shown) [Compound 6]	4.1
CC(C)(C)c1ccc(Oc2ccc(C3(c4ccc(C(C)(C)C)cc4)c4cc(N(c5ccccc5)c5ccc(C(C)(C)C)cc5)c5c(oc6ccccc65)c4-c4c3cc(N(c3ccccc3)c3ccc(C(C)(C)C)cc3)c3oc5ccccc5c43)cc2)cc1 (stereo not shown) [Compound 7]	3.8
CC(C)(C)c1ccc(Sc2ccc(C3(c4ccc(C(C)(C)C)cc4)c4cc(N(c5ccccc5)c5ccc(C(C)(C)C)cc5)c5c(oc6ccccc65)c4-c4c3cc(N(c3ccccc3)c3ccc(C(C)(C)C)cc3)c3oc5ccccc5c43)cc2)cc1 (stereo not shown) [Compound 8]	3.9
Cc1ccc(C)c(C2(c3ccc([Si](C)(C)C)cc3)c3cc(N(c4ccccc4)c4ccc(C(C)(C)C)cc4)c4c(oc5ccccc54)c3-c3c2cc(N(c2ccccc2)c2ccc(C(C)(C)C)cc2)c2oc4ccccc4c32)c1 (stereo not shown) [Compound 9]	3.4
CC(C)(C)c1ccc(N(c2ccccc2)c2ccc3c(c2)C2(c4ccccc4-c4ccccc42)c2cc(N(c4ccccc4)c4ccc(C(C)(C)C)cc4)c4c(oc5ccccc54)c2-3)cc1 [Compound BD, reference compound]	2.0
